Several values for one entry are separate records, joined by “and”; a condition that tells them apart may be missing. Equal values may be shown once.
Key:
subject 3 = assay: Skin blood microcirculation (SKBF) response to taste stimuli, PCA sensory space (ESRP); type: in vivo, human; details: concentration 3
Description: A Periflux PF 5010 (Perimed AB, Sweden) system was chosen, which enables non-invasive monitoring of blood perfusion in the capillaries, arterioles and venules.
The unit of blood perfusion is arbitrary and corresponds to the product of the mean rate of displacement of the red blood cells by their concentration. The system Periflux PF 5010 has a 780 nm, 1 mm diameter laser beam without thermal effect. An optical fiber probe PR407 is used. The low-energy laser beam is transmitted by the probe to the tissue. A portion of the light reflects off the static structures and another portion of the light reflects off the moving blood cells. When the light reflects off a moving cell, the wavelength is modified, which corresponds to the Doppler effect. The scattered light collected by the optical fiber is used to calculate the perfusion value. The measurement is expressed in perfusion units (PU). Recording was carried out on the pad of the index finger of the non-dominant hand, due to the high level of vascularization of this zone. The perfusion signals were recorded by an 8-channel PowerLab PL35088/35 acquisition system; the data were collected at a frequency of 1 kHz and analyzed by the LabChart® software (AD instruments Ltd, United Kingdom).
. Then, the peak was analyzed manually by selecting the whole of the peak and analyzing it with the LabChart® software (FIG. 1).
Several shape parameters were extracted from the signal (i.e. amplitude, duration, gradient). […]
The SKBF responses were analyzed individually by one-way ANOVA (product effect), the subjects having their own “preferential channel” (Lacey, J. I., Bateman, D. E. & VanLEHN, R., 1953, Autonomic response specificity: An experimental study. Psychosomatic Medicine, 15, 8-21). […]

[1] = system: four non-smoking volunteers (2 men and 2 women); assay: Hedonic score, 11-point scale (0 very unpleasant to 10 very pleasant, 5 neutral); type: in vivo, human
Procedure: (§1) In this test, four non-smoking volunteers (2 men and 2 women) were chosen from 12 people for their performance in taste recognition. Their mean age was 32 years, ranging from 24 to 40 years. […] These four people were trained for several months to recognize and detect the four basic tastes, and also regarding the procedures of sensory and physiological analysis.
(§2) The four basic tastes (sweet, salty, sour and bitter) were used. The solutions were prepared with citric acid for the sour taste, caffeine for the bitter taste, sodium chloride for the salty taste and sucrose for the sweet taste (all purchased from Sigma Aldrich, France) in Evian water. Evian water was also used as control and blank. Each taste was prepared with the four concentrations mentioned in table 1.
(§3) The amount of solution to be tested was standardized at 10 ml. In order to impregnate the whole of the oral cavity, the subjects kept the solution in their mouth for 5 s before swallowing it.
(§4) The sessions were individual and the subjects were asked not to eat or drink anything for at least 1 h before the test. They arrived 15 min before the start of the session in order to acclimatize to the environmental conditions, in particular the temperature of the room (kept constant at 23° C.) and to be resting seated on a comfortable chair. The 16 solutions for testing and two additional samples of water containing solely Evian water, added to the references, were presented monadically following a test order determined from a “balanced incomplete block design”. During a session, 9 samples out of 18 were presented to minimize sensory fatigue. In addition, a sample of Evian was always tested as a “blank” sample in order to avoid the first-order effect (Lawless, H. T. & Heymann, H., 2010, Sensory evaluation of food: Principles and practices. Springer, New York) and was excluded from the analysis. A light signal was sent to give the instruction to test the sample. When the disturbance to the nervous system returned to its baseline level (after approximately 1 min), a second light signal indicated to the subjects that they should complete a questionnaire regarding the stimulus tested previously. The first part of the questionnaire was linked to the identification of the taste (i.e. determining the quality of the taste); the subjects had to choose between five labels: sweet, salty, sour, bitter or neutral. They then had to assign a taste intensity score on an 11-point scale (from 0 “not intense” (i.e. taste of Evian only) to 10 “very intense”) and finally to give a hedonic score on an 11-point scale (from 0 “very unpleasant” to 10 “very pleasant”, 5 being “neutral”).
(§5) This procedure was repeated for each of the 9 stimuli. A session lasted approximately 45 min including a debriefing at the end of the test to ensure understanding of the sense of the signal variations. The experiment was repeated 12 times per subject, meaning that the data are composed of 6 data sets per subject and per product and 12 data sets for the Evian product per subject. Thus, the database consists of 432 samples.
(§6) The effect of the taste on the hedonic and intensity scores was analyzed by an analysis of variance (ANOVA) including the product effect, the subject effect and the product-subject interaction. The subject effect was fixed because there were only 4 subjects and the results could only be applied to a particular schema. The differences were considered to be significant at a level of 0.05.

[2] = cited from earlier work; for detection threshold: representative compound of a primary taste
[3] = system: four non-smoking volunteers (2 men and 2 women); assay: Taste identification questionnaire, trained panel (count of 6 repetitions per subject in which the stimulus was given each taste label; level of recognition %); type: in vivo, human
Procedure: as §1, §2, §3, §4, §5

[4] = system: four non-smoking volunteers (2 men and 2 women); assay: Taste intensity score, 11-point scale (0 not intense to 10 very intense); type: in vivo, human; details: concentration 4; averaged over 4 subjects, 6 repetitions each
Procedure: as §1, §2, §3, §4, §5, §6

Cn1c(=O)c2c(ncn2C)n(C)c1=O [Caffeine, caffeine]
SKBF disturbance (signal width, area of the peak; ANOVA) (subject 3): significantly stronger disturbance than the others | hedonic score ([1]; concentration 3): 3.5±1.8 | hedonic score ([1]; concentration 4 (highest)): 3.5±2.3 | detection threshold [2]: 0.05 to 0.35 g/L | Individual recognition score: Bitter ([3]; human, in vivo): 6 (9×) and 4 (2×) and 5 (4×) and 3 | Individual recognition score: Neutral ([3]; human, in vivo): 0 (11×) and 1 (3×) and 3 and 2 | Individual recognition score: Salty ([3]; human, in vivo): 0 | Individual recognition score: Sour ([3]; human, in vivo): 0 (14×) and 1 (2×) | Individual recognition score: Sweet ([3]; human, in vivo): 0 (15×) and 1 | Level of Recognition %: Bitter ([3]; human, in vivo): 83% and 84% | Level of Recognition %: Salty ([3]; human, in vivo): 0% | Level of Recognition %: Sour ([3]; human, in vivo): 0% and 4% | Level of Recognition %: Sweet ([3]; human, in vivo): 0% and 4%

OC[C@H]1O[C@@](CO)(O[C@H]2O[C@H](CO)[C@@H](O)[C@H](O)[C@H]2O)[C@@H](O)[C@@H]1O [Sucrose, sucrose]
hedonic score ([1]; concentration 4 (highest)): 7.0±2.6 | intensity score [4]: 8.3±0.9 | detection threshold concentration of the basic taste ([2]; literature (Purves 2005; Robinson 2005)): approximately 20 mmol·l^−1 | detection threshold [2]: 6.846 g/L | Individual recognition score: Bitter ([3]; Subject 1, dilution 1): 0 | Individual recognition score: Neutral ([3]; Subject 1, dilution 1): 0 | Individual recognition score: Salty ([3]; Subject 1, dilution 1): 0 | Individual recognition score: Sour ([3]; Subject 1, dilution 1): 0 | Individual recognition score: Sweet ([3]; Subject 1, dilution 1): 6 | Individual recognition score: Bitter ([3]; Subject 1, dilution 2): 0 | Individual recognition score: Neutral ([3]; Subject 1, dilution 2): 0 | Individual recognition score: Salty ([3]; Subject 1, dilution 2): 0 | Individual recognition score: Sour ([3]; Subject 1, dilution 2): 0 | Individual recognition score: Sweet ([3]; Subject 1, dilution 2): 6 | Individual recognition score: Bitter ([3]; Subject 1, dilution 3): 0 | Individual recognition score: Neutral ([3]; Subject 1, dilution 3): 0 | Individual recognition score: Salty ([3]; Subject 1, dilution 3): 0 | Individual recognition score: Sour ([3]; Subject 1, dilution 3): 0 | Individual recognition score: Sweet ([3]; Subject 1, dilution 3): 6 | Individual recognition score: Bitter ([3]; Subject 1, dilution 4): 0 | Individual recognition score: Neutral ([3]; Subject 1, dilution 4): 0 | Individual recognition score: Salty ([3]; Subject 1, dilution 4): 0 | Individual recognition score: Sour ([3]; Subject 1, dilution 4): 0 | Individual recognition score: Sweet ([3]; Subject 1, dilution 4): 6 | Individual recognition score: Bitter ([3]; Subject 2, dilution 1): 0 | Individual recognition score: Neutral ([3]; Subject 2, dilution 1): 0 | Individual recognition score: Salty ([3]; Subject 2, dilution 1): 0 | Individual recognition score: Sour ([3]; Subject 2, dilution 1): 0 | Individual recognition score: Sweet ([3]; Subject 2, dilution 1): 6 | Individual recognition score: Bitter ([3]; Subject 2, dilution 2): 0 | Individual recognition score: Neutral ([3]; Subject 2, dilution 2): 0 | Individual recognition score: Salty ([3]; Subject 2, dilution 2): 0 | Individual recognition score: Sour ([3]; Subject 2, dilution 2): 0 | Individual recognition score: Sweet ([3]; Subject 2, dilution 2): 6 | Individual recognition score: Bitter ([3]; Subject 2, dilution 3): 0 | Individual recognition score: Neutral ([3]; Subject 2, dilution 3): 0 | Individual recognition score: Salty ([3]; Subject 2, dilution 3): 0 | Individual recognition score: Sour ([3]; Subject 2, dilution 3): 0 | Individual recognition score: Sweet ([3]; Subject 2, dilution 3): 6 | Individual recognition score: Bitter ([3]; Subject 2, dilution 4): 0 | Individual recognition score: Neutral ([3]; Subject 2, dilution 4): 0 | Individual recognition score: Salty ([3]; Subject 2, dilution 4): 0 | Individual recognition score: Sour ([3]; Subject 2, dilution 4): 0 | Individual recognition score: Sweet ([3]; Subject 2, dilution 4): 6 | Individual recognition score: Bitter ([3]; Subject 3, dilution 1): 0 | Individual recognition score: Neutral ([3]; Subject 3, dilution 1): 3 | Individual recognition score: Salty ([3]; Subject 3, dilution 1): 0 | Individual recognition score: Sour ([3]; Subject 3, dilution 1): 0 | Individual recognition score: Sweet ([3]; Subject 3, dilution 1): 3 | Individual recognition score: Bitter ([3]; Subject 3, dilution 2): 0 | Individual recognition score: Neutral ([3]; Subject 3, dilution 2): 0 | Individual recognition score: Salty ([3]; Subject 3, dilution 2): 0 | Individual recognition score: Sour ([3]; Subject 3, dilution 2): 0 | Individual recognition score: Sweet ([3]; Subject 3, dilution 2): 6 | Individual recognition score: Bitter ([3]; Subject 3, dilution 3): 0 | Individual recognition score: Neutral ([3]; Subject 3, dilution 3): 0 | Individual recognition score: Salty ([3]; Subject 3, dilution 3): 0 | Individual recognition score: Sour ([3]; Subject 3, dilution 3): 0 | Individual recognition score: Sweet ([3]; Subject 3, dilution 3): 6 | Individual recognition score: Bitter ([3]; Subject 3, dilution 4): 0 | Individual recognition score: Neutral ([3]; Subject 3, dilution 4): 0 | Individual recognition score: Salty ([3]; Subject 3, dilution 4): 0 | Individual recognition score: Sour ([3]; Subject 3, dilution 4): 0 | Individual recognition score: Sweet ([3]; Subject 3, dilution 4): 6 | Individual recognition score: Bitter ([3]; Subject 4, dilution 1): 0 | Individual recognition score: Neutral ([3]; Subject 4, dilution 1): 0 | Individual recognition score: Salty ([3]; Subject 4, dilution 1): 0 | Individual recognition score: Sour ([3]; Subject 4, dilution 1): 0 | Individual recognition score: Sweet ([3]; Subject 4, dilution 1): 6 | Individual recognition score: Bitter ([3]; Subject 4, dilution 2): 0 | Individual recognition score: Neutral ([3]; Subject 4, dilution 2): 0 | Individual recognition score: Salty ([3]; Subject 4, dilution 2): 0 | Individual recognition score: Sour ([3]; Subject 4, dilution 2): 0 | Individual recognition score: Sweet ([3]; Subject 4, dilution 2): 6 | Individual recognition score: Bitter ([3]; Subject 4, dilution 3): 0 | Individual recognition score: Neutral ([3]; Subject 4, dilution 3): 0 | Individual recognition score: Salty ([3]; Subject 4, dilution 3): 0 | Individual recognition score: Sour ([3]; Subject 4, dilution 3): 0 | Individual recognition score: Sweet ([3]; Subject 4, dilution 3): 6 | Individual recognition score: Bitter ([3]; Subject 4, dilution 4): 0 | Individual recognition score: Neutral ([3]; Subject 4, dilution 4): 0 | Individual recognition score: Salty ([3]; Subject 4, dilution 4): 0 | Individual recognition score: Sour ([3]; Subject 4, dilution 4): 0 | Individual recognition score: Sweet ([3]; Subject 4, dilution 4): 6 | Level of Recognition %: Bitter ([3]; four subjects, dilution 1): 0% | Level of Recognition %: Neutral ([3]; four subjects, dilution 1): 12% | Level of Recognition %: Salty ([3]; four subjects, dilution 1): 0% | Level of Recognition %: Sour ([3]; four subjects, dilution 1): 0% | Level of Recognition %: Sweet ([3]; four subjects, dilution 1): 88% | Level of Recognition %: Bitter ([3]; four subjects, dilution 2): 0% | Level of Recognition %: Neutral ([3]; four subjects, dilution 2): 0% | Level of Recognition %: Salty ([3]; four subjects, dilution 2): 0% | Level of Recognition %: Sour ([3]; four subjects, dilution 2): 0% | Level of Recognition %: Sweet ([3]; four subjects, dilution 2): 100% | Level of Recognition %: Bitter ([3]; four subjects, dilution 3): 0% | Level of Recognition %: Neutral ([3]; four subjects, dilution 3): 0% | Level of Recognition %: Salty ([3]; four subjects, dilution 3): 0% | Level of Recognition %: Sour ([3]; four subjects, dilution 3): 0% | Level of Recognition %: Sweet ([3]; four subjects, dilution 3): 100% | Level of Recognition %: Bitter ([3]; four subjects, dilution 4): 0% | Level of Recognition %: Neutral ([3]; four subjects, dilution 4): 0% | Level of Recognition %: Salty ([3]; four subjects, dilution 4): 0% | Level of Recognition %: Sour ([3]; four subjects, dilution 4): 0% | Level of Recognition %: Sweet ([3]; four subjects, dilution 4): 100%

Source: patent US20180188224A1, “METHOD FOR CONSTRUCTING A SENSORY SPACE” (CENTRE SCIENTIFIQUE ET TECHNIQUE DU BATIMENT (CSTB), priority 2015, published 2018)
